# Paper PMC3175280 (Neurochemistry international, 2011)
# Where “and” joins values, the source holds several entries; their conditions need not be identical. Identical values can stand only once.
# Experiments:
# [1] = biological target: T1, S299Cα1β1γ2S GABAA receptors (Rattus norvegicus, UniProt P15431+P18508+P62813, S325C); test: Substituted cysteine accessibility; type: cell-based; conditions: for reduction of subsequent ALLO induced current: 0.5 mM pCMBS added with 5 nM ALLO; for inhibition of subsequent ALLO induced current: 0.5 mM pCMBS added with 100 nM ALLO
# T1 sequence (P62813 28-455 S325C): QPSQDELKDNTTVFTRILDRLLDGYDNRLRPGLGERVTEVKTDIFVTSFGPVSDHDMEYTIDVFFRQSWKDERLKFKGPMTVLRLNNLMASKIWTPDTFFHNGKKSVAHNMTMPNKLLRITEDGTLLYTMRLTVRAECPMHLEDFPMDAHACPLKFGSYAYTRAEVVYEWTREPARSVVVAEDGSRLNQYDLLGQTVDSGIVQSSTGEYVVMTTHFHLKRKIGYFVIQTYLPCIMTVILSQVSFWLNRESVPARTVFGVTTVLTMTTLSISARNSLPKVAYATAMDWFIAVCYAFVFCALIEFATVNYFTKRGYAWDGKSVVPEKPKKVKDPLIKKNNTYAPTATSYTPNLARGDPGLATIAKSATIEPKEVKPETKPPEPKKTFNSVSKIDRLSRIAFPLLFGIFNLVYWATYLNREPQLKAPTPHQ
# T1 sequence (P15431 26-474): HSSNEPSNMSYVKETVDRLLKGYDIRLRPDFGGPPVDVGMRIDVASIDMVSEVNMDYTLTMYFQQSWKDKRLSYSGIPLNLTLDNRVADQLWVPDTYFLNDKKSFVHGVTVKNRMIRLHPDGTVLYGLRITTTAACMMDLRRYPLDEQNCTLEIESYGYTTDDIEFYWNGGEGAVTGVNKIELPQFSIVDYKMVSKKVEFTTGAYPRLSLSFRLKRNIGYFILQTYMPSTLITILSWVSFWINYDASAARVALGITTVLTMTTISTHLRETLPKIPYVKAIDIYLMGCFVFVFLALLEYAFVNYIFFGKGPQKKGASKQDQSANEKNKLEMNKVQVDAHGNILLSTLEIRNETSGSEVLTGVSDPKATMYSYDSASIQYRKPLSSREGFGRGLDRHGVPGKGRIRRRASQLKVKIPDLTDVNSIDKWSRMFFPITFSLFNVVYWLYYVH
# T1 sequence (P18508 39-466): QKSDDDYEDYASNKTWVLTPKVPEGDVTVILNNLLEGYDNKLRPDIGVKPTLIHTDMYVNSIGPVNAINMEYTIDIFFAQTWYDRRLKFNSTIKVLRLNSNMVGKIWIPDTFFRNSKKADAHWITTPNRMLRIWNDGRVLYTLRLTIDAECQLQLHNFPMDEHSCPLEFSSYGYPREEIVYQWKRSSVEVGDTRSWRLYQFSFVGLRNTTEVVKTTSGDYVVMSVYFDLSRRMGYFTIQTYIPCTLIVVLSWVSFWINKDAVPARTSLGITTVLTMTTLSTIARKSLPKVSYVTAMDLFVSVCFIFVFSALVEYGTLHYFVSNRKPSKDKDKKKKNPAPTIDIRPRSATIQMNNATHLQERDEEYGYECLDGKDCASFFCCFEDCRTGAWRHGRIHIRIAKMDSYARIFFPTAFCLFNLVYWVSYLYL
# [2] = biological target: T2, wt α1β1γ2S GABAA receptors (Rattus norvegicus, UniProt P15431+P18508+P62813); test: Steroid activation; type: cell-based
# T2 sequence (P62813 28-455): as the sequence (P62813 28-455 S325C) above, with C298S counted along it
# T2 sequence (P15431 26-474): as the sequence (P15431 26-474) above
# T2 sequence (P18508 39-466): as the sequence (P18508 39-466) above
# [3] = biological target: T2, wt α1β1γ2S GABAA receptors; type: cell-based; conditions: 0.5 μM ALLO, about EC30, n=3
# [4] = biological target: T1, S299Cα1β1γ2S GABAA receptors; test: Steroid activation; type: cell-based; conditions: for current passed, % of 1 mM GABA current: representative trace; for first peak maximal current (curve fit), % of maximal (1 mM GABA) current: first (low concentration) peak of the bimodal dose response; for second peak maximal current (curve fit), % of maximal (1 mM GABA) current: second (high concentration) peak of the bimodal dose response
# [5] = biological target: T1, S299Cα1β1γ2S GABAA receptors; test: Extreme low dose assay; type: cell-based; conditions: for co-application current, scaled to the added currents = 1 / added separate currents, scaled: n=4; for difference between co-applied and added currents: not significant
# [6] = biological target: T1, S299Cα1β1γ2S GABAA receptors; test: Steroid potentiation of submaximal GABA current, S299C receptors; type: cell-based; conditions: not shown for THDOC
# [7] = tested on: α1S299C containing GABAA receptors; conditions: ref Williams and Akabas 1999, 2000, 2002; cited from earlier work
# [8] = biological target: T1, S299Cα1β1γ2S GABAA receptors; test: Blocking ALLO-induced current with isoallopregnanolone; type: cell-based
# [9] = biological target: wild type α1β1γ2S GABAA receptors (Rattus norvegicus, UniProt P15431+P18508+P62813); test: P4S dose response curve, wild type receptors; type: cell-based
# Chain of wild type α1β1γ2S GABAA receptors (P62813 28-455): as the sequence (P62813 28-455 S325C) above, with C298S counted along it
# Chain of wild type α1β1γ2S GABAA receptors (P15431 26-474): as the sequence (P15431 26-474) above
# Chain of wild type α1β1γ2S GABAA receptors (P18508 39-466): as the sequence (P18508 39-466) above
# [10] = biological target: T1, S299Cα1β1γ2S GABAA receptors; test: P4S dose response curve, S299C receptors; type: cell-based
# [11] = tested on: α1S299C containing GABAA receptors; conditions: preliminary dose response (not shown)
# [12] = biological target: T2, wt α1β1γ2S GABAA receptors; test: SCAM with pCMBS on ALLO-induced currents, wt receptors; type: cell-based; conditions: pCMBS added in any concentration of ALLO (not shown)
# [13] = biological target: T1, S299Cα1β1γ2S GABAA receptors; conditions: pCMBS added in the presence of GABA; ref Williams and Akabas 1999; cited from earlier work
# [14] = biological target: T1, S299Cα1β1γ2S GABAA receptors; test: Blocking ALLO-induced current with picrotoxin; type: cell-based; conditions: 1 mM PTN co-applied with 5 nM ALLO
molecule,measurement,setting,value
"C[C@]12CC[C@@H](O)C[C@@H]1CC[C@@H]1[C@@H]2CC[C@]2(C)C(c3ccccc3)=CC[C@@H]12 [17-PA, (3α,5α)-17-phenylandrost-16-en-3-ol]",percent change of 100 nM ALLO induced current,"[1]; 1 μM 17-PA added with pCMBS, subsequent 100 nM ALLO current",−4 ± 8%
"CC(=O)[C@H]1CC[C@H]2[C@@H]3CC[C@H]4C[C@H](O)CC[C@]4(C)[C@H]3CC[C@]12C [ALLO, 3α-hydroxy-5α-pregnan-20-one]",EC50,[2],870 nM
same,"maximal steroid induced current, % of 1 mM GABA current","[2]; wt receptors, steroid alone, −60 mV",about 43 ± 15%
same,"potentiation, percent increase of 1 μM GABA current",[3],120 ± 28%
same,"inward current, % of 1 mM GABA current","[4]; 50 pM steroid, no GABA, n=4",6 ± 4%
same,"current passed, % of 1 mM GABA current",[4]; 5 nM steroid,approximately 50%
same,"current passed, % of 1 mM GABA current",[4]; 100 nM steroid,approximately 50%
same,EC50,"[4]; EC50, first activation curve, first plateau to valley fit as a separate curve",0.59 nM
same,EC50,"[4]; EC50, second activation curve, second plateau to valley fit as a separate curve",70 nM
same,"first peak maximal current (curve fit), % of maximal (1 mM GABA) current",[4],58 ± 0.25%
same,"second peak maximal current (curve fit), % of maximal (1 mM GABA) current",[4],42 ± 0.26%
same,"co-application current, scaled to the added currents = 1",[5]; 100 pM ALLO + 100 nM GABA co-applied,1.21 ± 0.45
same,"added separate currents, scaled",[5]; 100 pM ALLO alone plus 100 nM GABA alone,1.0 ± 0.35
same,"co-application current, scaled to the added currents = 1",[5]; 5 nM ALLO + 100 nM GABA co-applied,1.27 ± 0.39
same,"added separate currents, scaled",[5]; 5 nM ALLO alone plus 100 nM GABA alone,1.0 ± 0.21
same,difference between co-applied and added currents,[5]; 100 nM GABA and 100 pM ALLO,20%
same,difference between co-applied and added currents,[5]; 100 nM GABA and 5 nM ALLO,27%
same,potentiation of submaximal GABA current,[6],no significant potentiation
NCCCC(=O)O [GABA],response of α1S299C containing receptors compared with wild type,[7],near wild type
"CC(=O)[C@H]1CC[C@H]2[C@@H]3CC[C@H]4C[C@@H](O)CC[C@]4(C)[C@H]3CC[C@]12C [ISO, 3β-hydroxy-5α-pregnan-20-one]",block of ALLO induced current,"[8]; 5 nM ISO, 5 nM ALLO",90 ± 5% and 80–85%
same,block of ALLO induced current,"[8]; 5 nM ISO, 100 nM ALLO",86 ± 8% and 80–85%
same,block of ALLO induced current,"[8]; 100 nM ISO, 5 nM ALLO",73 ± 4%
"O=S(=O)(O)C1CCNCC1 [P4S, Piperidine-4-sulfonic acid]",Kd,[9],110000 ± 37000 nM
same,"maximal current induced, % of 1 mM GABA current","[9]; wt, n of 3",61 ± 3.7%
same,Kd,[10],90000 ± 18000 nM
same,"maximal current induced, % of 1 mM GABA current","[10]; S299C, n of 3",58 ± 1.6%
"C[C@]12CC[C@@H](O)C[C@@H]1CC[C@@H]1[C@@H]2CC[C@]2(C)[C@@H](C(=O)CO)CC[C@@H]12 [THDOC, 3α,21-hydroxy-5α-pregnan-20-one]","current passed, % of 1 mM GABA current",[4]; 1 nM steroid,more than 50%
same,"current passed, % of 1 mM GABA current",[4]; 100 nM steroid,approximately 50%
same,"first peak maximal current (curve fit), % of maximal (1 mM GABA) current",[4],57 ± 5.3%
same,"second peak maximal current (curve fit), % of maximal (1 mM GABA) current",[4],48 ± 0.35%
same,potentiation of submaximal GABA current,[6],no significant potentiation
"CCO [ethanol, Ethanol]",shift of EC50 versus wt,[11],shift to a higher EC50
"O=S(=O)(O)c1cc[c]([Hg][Cl])cc1 [pCMBS^−, para-chloromercuribenzenesulfonic acid]",reduction of subsequent ALLO induced current,[1]; subsequent 5 nM ALLO current,28 ± 8%
same,reduction of subsequent ALLO induced current,[1]; subsequent 100 nM ALLO current,22 ± 20%
same,inhibition of subsequent ALLO induced current,[1]; subsequent 5 nM ALLO current,63 ± 15%
same,inhibition of subsequent ALLO induced current,[1]; subsequent 100 nM ALLO current,63 ± 15%
same,decrease of ALLO current during co-application,[1]; 0.5 mM pCMBS applied simultaneously with 5 nM ALLO,7 ± 29%
same,reduction of ALLO current during co-application,[1]; 0.5 mM pCMBS co-applied with 100 nM ALLO,62 ± 17%
same,percent difference in subsequent ALLO current,"[1]; pCMBS added with 1 μM ISO, subsequent 100 nM ALLO current",−71 ± 10%
same,percent difference in subsequent ALLO current,"[1]; pCMBS co-applied with 100 nM ISO, subsequent 5 nM ALLO current",3 ± 14%
same,effect on subsequent ALLO currents,"[1]; pCMBS plus 5 nM ISO, subsequent 5 nM or 100 nM ALLO currents (not shown)",did not affect
same,effect on subsequent ALLO induced currents,[12],did not affect
same,accessibility of S299C to modification,[13],not accessible to be modified
CC(C)c1cccc(C(C)C)c1O [propofol],response of α1S299C containing receptors compared with wild type,[7],near wild type
Picrotoxin [PTN],block of ALLO induced current,[14],80 ± 20% and ~80%
